From ChEMBL document CHEMBL1151409, “Flavonoids of Desmanthus illinoensis” (1983) come the findings set out here.

Each structure is given as a SMILES string. Activity calls are given as the source filed them. The calls are words filed in the database; no cut-off is given here.

Assay [1] deals with Stenotrophomonas maltophilia. In words: Antibacterial activity against Pseudomonas maltophilia at 100 ug by test disc paper method. It is filed as functional. Conditions: read-out: IZ.
For a further assay, the system named is Heliothis virescens. In words: Growth inhibition of tobacco budworm larvae assessed as percent of diet. It is filed as functional.
The subject of assay [2] is Lysinibacillus sphaericus. In words: Antibacterial activity against Bacillus sphaericus by test disc paper method. It is filed as functional, organism-based.
In another assay the test system is Bacillus subtilis. Nature of the assay: Antibacterial activity against Bacillus subtilis at 100 ug by test disc paper method. As to conditions: read-out: IZ. It is filed as functional.
In a further assay the test system is Solanum lycopersicum. Nature of the assay: Growth regulatory activity on tomato root. It is filed as functional, organism-based.
A further assay relates to Bacillus thuringiensis. Nature of the assay: Antibacterial activity against Bacillus thuringiensis at 100 ug by test disc paper method. It is filed as functional. Conditions: read-out: IZ.

As to `O=c1c(O)c(-c2ccc(O)c(O)c2)oc2cc(O)cc(O)c12` [QUERCETIN], the zone of inhibition at 100 µg/disc in assay [1] worked out at 10 mm. Moreover, the ED50 in the assay with Heliothis virescens was determined as 0.05%.

With `O=C(O)c1cc(O)c(O)c(O)c1` [GALLIC ACID], in assay [2], the result was Active. For the same compound, in the assay on Bacillus subtilis, the zone of inhibition at 100 µg/disc is 10 mm. In addition, in the assay on Heliothis virescens, the ED50 was 18.5%.

`C[C@H]1O[C@@H](Oc2c(-c3cc(O)c(O)c(O)c3)oc3cc(O)cc(O)c3c2=O)[C@@H](O)[C@@H](O)[C@@H]1O` [MYRICITRIN]: the ED50 in the assay with Heliothis virescens was 0.11%.

In the case of `C[C@H]1O[C@@H](Oc2c(-c3cc(O)c(O)c(O)c3)oc3cc(O)cc(O)c3c2=O)[C@@H](O)[C@@H](O)[C@@H]1OC(=O)c1cc(O)c(O)c(O)c1`, the result in the assay with Solanum lycopersicum was inactive. For the same compound, in the assay on Heliothis virescens, the ED50 is 0.04%.

In the case of `C[C@H]1O[C@@H](Oc2c(-c3cc(O)c(O)c(O)c3)oc3cc(O)cc(O)c3c2=O)[C@@H](OC(=O)c2cc(O)c(O)c(O)c2)[C@@H](O)[C@@H]1O`, the result in assay [2] was Active. Further, the zone of inhibition at 100 µg/disc (in assay [1]; with Bacillus thuringiensis; with Bacillus subtilis) was 10 mm each time. The ED50 in the assay on Heliothis virescens is on record as 0.09%.
